Eleven compounds from ChEMBL document CHEMBL5500350, “Advances in TRPV6 inhibitors for tumors by targeted therapies: Macromolecular proteins, synthetic small molecule compounds, and natural compounds” (Eur J Med Chem, 2024) can be followed below.

In test [1] the target is T1, Transient receptor potential cation channel subfamily V member 6 (Homo sapiens, UniProt Q9H1D0).
T1 sequence (Q9H1D0 whole entry): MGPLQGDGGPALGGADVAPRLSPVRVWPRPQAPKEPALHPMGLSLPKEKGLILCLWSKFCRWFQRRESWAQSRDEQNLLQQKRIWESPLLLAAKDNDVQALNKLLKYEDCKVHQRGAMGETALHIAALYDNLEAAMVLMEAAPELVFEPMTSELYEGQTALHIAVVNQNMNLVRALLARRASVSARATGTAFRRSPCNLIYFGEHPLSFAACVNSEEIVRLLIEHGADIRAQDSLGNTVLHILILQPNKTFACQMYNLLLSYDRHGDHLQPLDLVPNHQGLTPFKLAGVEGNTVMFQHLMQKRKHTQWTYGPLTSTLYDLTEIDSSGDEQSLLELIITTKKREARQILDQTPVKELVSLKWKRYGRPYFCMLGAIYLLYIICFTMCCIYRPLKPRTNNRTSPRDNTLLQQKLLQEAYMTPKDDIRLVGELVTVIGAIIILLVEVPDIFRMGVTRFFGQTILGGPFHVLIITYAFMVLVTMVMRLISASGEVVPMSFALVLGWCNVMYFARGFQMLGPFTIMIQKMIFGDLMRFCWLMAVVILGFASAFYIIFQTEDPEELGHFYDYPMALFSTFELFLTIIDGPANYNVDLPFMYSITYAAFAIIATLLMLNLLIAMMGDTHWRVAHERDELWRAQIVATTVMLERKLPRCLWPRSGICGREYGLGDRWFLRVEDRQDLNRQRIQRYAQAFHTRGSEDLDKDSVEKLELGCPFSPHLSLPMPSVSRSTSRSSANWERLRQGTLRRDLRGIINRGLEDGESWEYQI
Nature of the test: Inhibition of TRPV6 (unknown origin) transfected in HEK293 cells assessed as reduction in TRPV6-induced Cd2+ influx.

Test [2] deals with LNCaP. The test is described as follows: Antiproliferative activity against human LNCaP cells assessed as reduction in cell viability incubated for 72 hrs by XTT assay. Background: Tetrazolium dyes change colour on reduction, which living cells bring about.
The subject of test [3] is T47D. Nature of the test: Antiproliferative activity against human T47D cells assessed as reduction in cell viability incubated for 72 hrs by XTT assay.
The target in test [4] is T1, Transient receptor potential cation channel subfamily V member 6. Nature of the test: Inhibition of TRPV6 (unknown origin) expressed in Sf9 cells.
Test [5] has the same target. The test is described as follows: Inhibition of TRPV6 (unknown origin).

In the case of `c1ccc(COc2ccccc2CNC23CC4CC(CC(C4)C2)C3)cc1`, the IC50 (as a rule, the concentration at which inhibition is half-maximal) in test [1] is 21 µM.

With `c1ccc(C2CCC(N3CCN(Cc4ccco4)CC3)CC2)cc1` (configuration not stated), the IC50 in test [1] turned out to be 25 µM. Still for that read-out and setting: to `Fc1ccc(CCNCc2ccccc2OCc2ccc(F)cc2)cc1` belongs 15 µM. Regarding `CN(C)c1ccc(CCN2CCC[C@@H]2CO)cc1`, the IC50 in test [2] stood at 1 µM; in test [3] it was 49.1 µM. For the compound `COc1ccc(CCN2CCC[C@@H]2COC(c2ccccc2)c2ccc(Cl)cc2)cc1` (some centres not stated), the figures for the 50% inhibitory concentration (IC50) in test [2] and in test [3] were 50 µM and 220 µM, respectively. In test [4], `CCCc1cc(O)c2c(c1)OC(C)(C)[C@@H]1C=CC(C)=C[C@@H]21` registered an IC50 of 9.4 µM.

In the case of `CN(C)c1ccc(CCN2CCC[C@@H]2COC(c2ccccc2)c2ccc(Cl)cc2)cc1` (some centres not stated), the IC50 in test [2] was found to be 0.31 µM; in test [3] it was 44.5 µM. In the same order, the values of `COc1ccc(CCN2CCC[C@@H]2COC(c2ccccc2)c2ccccc2)cc1` are 61 µM and 198 µM. `COc1ccc(CCN2CCC[C@@H]2COCc2ccc(Cl)cc2)cc1`: the IC50 in test [5] worked out at 0.44 µM; in test [2] it was 0.44 µM; in test [3], 38.8 µM. For the compound `COc1cc(Br)ccc1CN1CCN(C2CCC(c3ccccc3)CC2)CC1` (configuration not stated), the concentration for half-maximal inhibition (IC50) in test [1] came out at 26 µM. Same read-out and setting: to `c1ccc(Oc2cccc(CN3CCN(Cc4cccnc4)CC3)c2)cc1` belongs 17 µM.
